Data as given in patent US20110039763A1, “TARGETED ANTIMICROBIAL MOIETIES” (C3 JIAN, INC., priority 2009, published 2011).
“Also recorded” adds a separate entry of the source.

System: microorganisms
Test: Targeting peptide binding to target microorganisms (Tables 3, 10, 12)
Settings: peptide binding in aqueous buffers that varied with peptide solubility; preferably 1x PBS

| Substance | Target(s) (microorganism bound by the targeting peptide) |
| --- | --- |
| 1T-105 (GEGLPPPVLHLPPPRMSGR; Peptide with targeting and/or antimicrobial activity) | S. epidermidis; also recorded: S. gordonii; also recorded: S. mitis; also recorded: S. mutans; also recorded: S. oralis |
| 1T-106 (DALRRSRSQGRRHR; Peptide with targeting and/or antimicrobial activity) | S. gordonii; also recorded: S. mitis; also recorded: S. mutans; also recorded: S. oralis; also recorded: S. salivarious |
| 1T-107 (SPVPRFTAVGGVSRGSP; Peptide with targeting and/or antimicrobial activity) | A. naeslundii; also recorded: S. epidermidis; also recorded: S. gordonii; also recorded: S. mitis; also recorded: S. mutans; also recorded: S. oralis; also recorded: S. salivarious; also recorded: S. sanguinis |
| 1T-108 (WGPLGPERPLW; Peptide with targeting and/or antimicrobial activity) | S. gordonii; also recorded: S. mitis; also recorded: S. mutans; also recorded: S. oralis; also recorded: S. salivarious; also recorded: S. sanguinis |
| 1T-109 (VTTNVRQGAGS; Peptide with targeting and/or antimicrobial activity) | A. naeslundii; also recorded: S. epidermidis; also recorded: S. gordonii; also recorded: S. mitis; also recorded: S. mutans; also recorded: S. oralis; also recorded: S. salivarious; also recorded: S. sanguinis |
| 1T-110 (LAAKTAVCVGRAFM; Peptide with targeting and/or antimicrobial activity) | A. naeslundii; also recorded: P. gingivalis; also recorded: S. epidermidis; also recorded: S. gordonii; also recorded: S. mitis; also recorded: S. mutans; also recorded: S. oralis; also recorded: S. sanguinis |
| 1T-112 (SDNDGKLILGTSQ; Peptide with targeting and/or antimicrobial activity) | S. gordonii |
| 1T-113 (HGAHQRTGQRLHHHRGRTVSGCRQNPVAGVDPDEHR; Peptide with targeting and/or antimicrobial activity) | S. mitis |
| 1T-114 (RQAPGPGLVTITAACSAPGSRSR; Peptide with targeting and/or antimicrobial activity) | A. naeslundii; also recorded: P. gingivalis; also recorded: S. epidermidis; also recorded: S. gordonii; also recorded: S. mitis; also recorded: S. mutans; also recorded: S. oralis; also recorded: S. sanguinis |
| 1T-117 (GPGVVGPAPFSRLPAHALNL; Peptide with targeting and/or antimicrobial activity) | S. mutans |
| 1T-119 (SPATQKAPTRAQPSRAPVQDCGDGRPTAAPDDVERLSPR; Peptide with targeting and/or antimicrobial activity) | S. gordonii; also recorded: S. mitis; also recorded: S. mutans; also recorded: S. oralis |
| 1T-121 (FAKETGFGIGGAQEGWWIIADIYGPNPF; Peptide with targeting and/or antimicrobial activity) | S. gordonii; also recorded: S. mitis; also recorded: S. mutans; also recorded: S. oralis; also recorded: S. salivarious; also recorded: S. sanguinis |
| 1T-122 (GAIPDPVTHRVDWEEDHQTRPSR; Peptide with targeting and/or antimicrobial activity) | S. mitis |
| 1T-123 (LVRRNAVAGRSDGLAGAEQLDLVRLQGVL; Peptide with targeting and/or antimicrobial activity) | S. gordonii |
| 1T-124 (LFDERNKIA; Peptide with targeting and/or antimicrobial activity) | S. mitis; also recorded: S. mutans; also recorded: S. oralis |
